PubChem BioAssay AID1918955 (Molecular Pharmacology Branch, DTP, NCI, 2023)
Several values for one entry are separate records, joined by “and”; a condition that tells them apart may be missing. Equal entries are not always repeated.

Tested on: NCI/ADR-RES complex spheroid viability
Experiment: Anticancer human tumor NCI/ADR-RES cell line growth inhibition;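 further: spheroids exposed to compounds for 7 days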;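 on viability, T/C: 100% = DMSO vehicle treated spheroids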
Conditions: for viability, T/C: stronger effect = lower value
Method in brief: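 Multicellular complex spheroids of tumor cells with human endothelial cells (HUVEC) and mesenchymal stem cells; the LSD1 inhibitor iadademstat was combined with standard-of-care or investigational agents. Top concentration at or near clinical Cmax, half-log dilutions; final DMSO ≤0.25%.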

[1] = curve of first compound, second compound 0.1 µM
[2] = curve of first compound, second compound 0.316 µM
[3] = curve of first compound, second compound 1 µM
[4] = curve of first compound, second compound 3.16 µM
[5] = curve of first compound, second compound 10 µM

For `CCc1c2c(nc3ccc(O)cc13)-c1cc3c(c(=O)n1C2)COC(=O)[C@]3(O)CC` + NC1CC1c1ccc(-c2cccc(O)c2)cc1, which IC50 [1] is on record?
Its IC50 is under 0.949 nM.

What about the IC50 [2] of the same compound?
The IC50 was under 0.949 nM.

And the IC50 [3]?
The IC50 was under 0.949 nM.

And the IC50 [4]?
The IC50 was under 0.949 nM.

And the IC50 [5]?
Its IC50 is under 0.949 nM.

What about the viability, T/C (second compound 0.1 µM, first compound 0.000949 µM) of the same compound?
Its viability, T/C is 3.8%.

And the viability, T/C (second compound 0.1 µM, first compound 0.003 µM)?
Its viability, T/C is 1.6%.

And the viability, T/C (second compound 0.1 µM, first compound 0.00949 µM)?
The viability, T/C was 0.64%.

What about the viability, T/C (second compound 0.1 µM, first compound 0.03 µM) of the same compound?
Its viability, T/C is 0.32%.

And the viability, T/C (second compound 0.1 µM, first compound 0.0949 µM)?
The viability, T/C was 0.23%.

What about the viability, T/C (second compound 0.1 µM, first compound 0.3 µM) of the same compound?
Its viability, T/C is 0.59%.

What about the viability, T/C (second compound 0.316 µM, first compound 0.000949 µM) of the same compound?
Its viability, T/C is 3.44%.

What about the viability, T/C (second compound 0.316 µM, first compound 0.003 µM) of the same compound?
Its viability, T/C is 1.85%.

And the viability, T/C (second compound 0.316 µM, first compound 0.00949 µM)?
Its viability, T/C is 0.73%.

And the viability, T/C (second compound 0.316 µM, first compound 0.03 µM)?
Its viability, T/C is 0.21%.

What about the viability, T/C (second compound 0.316 µM, first compound 0.0949 µM) of the same compound?
The viability, T/C was 0.3%.

What about the viability, T/C (second compound 0.316 µM, first compound 0.3 µM) of the same compound?
The viability, T/C was 0.38%.

And the viability, T/C (second compound 1 µM, first compound 0.000949 µM)?
Its viability, T/C is 4.73%.

What about the viability, T/C (second compound 1 µM, first compound 0.003 µM) of the same compound?
Its viability, T/C is 3.11%.

What about the viability, T/C (second compound 1 µM, first compound 0.00949 µM) of the same compound?
Its viability, T/C is 0.96%.

And the viability, T/C (second compound 1 µM, first compound 0.03 µM)?
Its viability, T/C is 0.37%.

What about the viability, T/C (second compound 1 µM, first compound 0.0949 µM) of the same compound?
The viability, T/C was 0.24%.

And the viability, T/C (second compound 1 µM, first compound 0.3 µM)?
The viability, T/C was 0.51%.

What about the viability, T/C (second compound 3.16 µM, first compound 0.000949 µM) of the same compound?
The viability, T/C was 8.34%.

And the viability, T/C (second compound 3.16 µM, first compound 0.003 µM)?
The viability, T/C was 2.9%.

What about the viability, T/C (second compound 3.16 µM, first compound 0.00949 µM) of the same compound?
The viability, T/C was 1.29%.

And the viability, T/C (second compound 3.16 µM, first compound 0.03 µM)?
The viability, T/C was 0.29%.

What about the viability, T/C (second compound 3.16 µM, first compound 0.0949 µM) of the same compound?
The viability, T/C was 0.18%.

What about the viability, T/C (second compound 3.16 µM, first compound 0.3 µM) of the same compound?
Its viability, T/C is 0.31%.

And the viability, T/C (second compound 10 µM, first compound 0.000949 µM)?
Its viability, T/C is 20.9%.

What about the viability, T/C (second compound 10 µM, first compound 0.003 µM) of the same compound?
Its viability, T/C is 3.67%.

What about the viability, T/C (second compound 10 µM, first compound 0.00949 µM) of the same compound?
The viability, T/C was 1.58%.

And the viability, T/C (second compound 10 µM, first compound 0.03 µM)?
The viability, T/C was 0.59%.

And the viability, T/C (second compound 10 µM, first compound 0.0949 µM)?
The viability, T/C was 0.26%.

And the viability, T/C (second compound 10 µM, first compound 0.3 µM)?
The viability, T/C was 0.3%.

With `Nc1ncn(C2CC(O)C(CO)O2)c(=O)n1` (configuration not stated) + NC1CC1c1ccc(-c2cccc(O)c2)cc1 as the compound, how does the IC50 [1] read?
Its IC50 is 49.3 nM.

What about the IC50 [2] of the same compound?
The IC50 was 49.1 nM.

And the IC50 [3]?
The IC50 was 38.4 nM.

What about the IC50 [4] of the same compound?
The IC50 was 46 nM.

What about the IC50 [5] of the same compound?
The IC50 was 25.4 nM.

And the viability, T/C (second compound 0.1 µM, first compound 0.00316 µM)?
Its viability, T/C is 90.5%.

And the viability, T/C (second compound 0.1 µM, first compound 0.01 µM)?
The viability, T/C was 79.4%.

What about the viability, T/C (second compound 0.1 µM, first compound 0.0316 µM) of the same compound?
The viability, T/C was 61.5%.

And the viability, T/C (second compound 0.1 µM, first compound 0.1 µM)?
The viability, T/C was 32.8%.

And the viability, T/C (second compound 0.1 µM, first compound 0.316 µM)?
Its viability, T/C is 19.9%.

And the viability, T/C (second compound 0.1 µM, first compound 1 µM)?
Its viability, T/C is 13.6%.

What about the viability, T/C (second compound 0.316 µM, first compound 0.00316 µM) of the same compound?
The viability, T/C was 93.3%.

What about the viability, T/C (second compound 0.316 µM, first compound 0.01 µM) of the same compound?
Its viability, T/C is 83%.

And the viability, T/C (second compound 0.316 µM, first compound 0.0316 µM)?
The viability, T/C was 62%.

What about the viability, T/C (second compound 0.316 µM, first compound 0.1 µM) of the same compound?
Its viability, T/C is 31.3%.

What about the viability, T/C (second compound 0.316 µM, first compound 0.316 µM) of the same compound?
Its viability, T/C is 17.8%.

And the viability, T/C (second compound 0.316 µM, first compound 1 µM)?
The viability, T/C was 12.5%.

And the viability, T/C (second compound 1 µM, first compound 0.00316 µM)?
Its viability, T/C is 88.5%.

And the viability, T/C (second compound 1 µM, first compound 0.01 µM)?
Its viability, T/C is 77.5%.

What about the viability, T/C (second compound 1 µM, first compound 0.0316 µM) of the same compound?
The viability, T/C was 53.4%.

And the viability, T/C (second compound 1 µM, first compound 0.1 µM)?
The viability, T/C was 30.4%.

And the viability, T/C (second compound 1 µM, first compound 0.316 µM)?
The viability, T/C was 15.8%.

And the viability, T/C (second compound 1 µM, first compound 1 µM)?
The viability, T/C was 10.8%.

And the viability, T/C (second compound 3.16 µM, first compound 0.00316 µM)?
The viability, T/C was 94.6%.

What about the viability, T/C (second compound 3.16 µM, first compound 0.01 µM) of the same compound?
The viability, T/C was 78.3%.

What about the viability, T/C (second compound 3.16 µM, first compound 0.0316 µM) of the same compound?
The viability, T/C was 61%.

And the viability, T/C (second compound 3.16 µM, first compound 0.1 µM)?
Its viability, T/C is 32%.

What about the viability, T/C (second compound 3.16 µM, first compound 0.316 µM) of the same compound?
The viability, T/C was 15%.

What about the viability, T/C (second compound 3.16 µM, first compound 1 µM) of the same compound?
The viability, T/C was 12.4%.

And the viability, T/C (second compound 10 µM, first compound 0.00316 µM)?
Its viability, T/C is 73.5%.

And the viability, T/C (second compound 10 µM, first compound 0.01 µM)?
The viability, T/C was 63.7%.

And the viability, T/C (second compound 10 µM, first compound 0.0316 µM)?
Its viability, T/C is 45.5%.

What about the viability, T/C (second compound 10 µM, first compound 0.1 µM) of the same compound?
The viability, T/C was 32.2%.

And the viability, T/C (second compound 10 µM, first compound 0.316 µM)?
The viability, T/C was 16.1%.

What about the viability, T/C (second compound 10 µM, first compound 1 µM) of the same compound?
Its viability, T/C is 11.8%.

Which viability, T/C (compound 0.000316 µM) does the source give for `Cn1ncnc1C1c2n[nH]c(=O)c3cc(F)cc(c23)NC1c1ccc(F)cc1` (configuration not stated) here?
The viability, T/C was 103% and 101%.

What about the viability, T/C (compound 0.001 µM) of the same compound?
The viability, T/C was 109% and 102%.

What about the viability, T/C (compound 0.00316 µM) of the same compound?
Its viability, T/C is 106% and 103%.

And the viability, T/C (compound 0.01 µM)?
The viability, T/C was 99.4% and 99.5%.

And the viability, T/C (compound 0.0316 µM)?
Its viability, T/C is 96.5% and 100%.

And the viability, T/C (compound 0.1 µM)?
Its viability, T/C is 105% and 101%.

What about the IC50 (curve of compound) of the same compound?
Its IC50 is over 100 nM.
